Data as given in the supplement of paper PMC11451515.

Assays:
Conditions in all cases: 48 h
[1] = test system: NOMO1; experiment: cell viability relative to DMSO control; higher = less cytotoxic
In short: (§1)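 Library compounds in DMSO were pin-dosed in an 11-point threefold series (47 μM to 0.79 nM) onto leukemia cells in 1536-well plates (5 μl). Plates held 500 cells/well of NOMO1 or SEM or 1000 cells/well of P12-Ichikawa, each adapted for at least four passages in each medium. Luminescence was read with CellTiter-Glo One after 48 h at 37°C. Viability means the per-plate percentage relative to DMSO wells, using cell-free wells as background.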

[2] = test system: P12-Ichikawa; experiment: as above
In short: as §1

[3] = test system: SEM cells; experiment: as above
In short: as §1

[4] = test system: NOMO1; experiment: AUC of viability dose-response curve (% viability x log10 dose units); higher = less sensitive
In short: (§2)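 Leukemia cells adapted to each medium were seeded at 500 or 1000 cells/well in 1536-well plates and dosed with library compounds in DMSO at 11 threefold doses from 47 μM to 0.79 nM for 48 h at 37°C. CellTiter-Glo One luminescence was normalised per plate to DMSO and cell-free wells, then fitted with a four-parameter log-logistic model over log10 doses. Area under the curve was taken from this fit by the trapezoidal rule, with curves above full viability scaled and curves failing quality control removed.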

[5] = test system: P12-Ichikawa; experiment: as above
In short: as §2

[6] = test system: SEM cells; experiment: as above
In short: as §2

COc1ccc(C(=O)CC(=O)c2ccc(C(C)(C)C)cc2)cc1
cell viability [%]
Conditions	[1]	[2]	[3]
HPLM + 10% dialyzed FBS, 0.000781 µM	78.3	105	70.8
HPLM + 10% dialyzed FBS, 0.00234 µM	107	112	73.2
HPLM + 10% dialyzed FBS, 0.00702 µM	92.8	113	75.9
HPLM + 10% dialyzed FBS, 0.0211 µM	101	110	66.4
HPLM + 10% dialyzed FBS, 0.0632 µM	108	120	69.1
HPLM + 10% dialyzed FBS, 0.19 µM	112	116	78.2
HPLM + 10% dialyzed FBS, 0.569 µM	131	119	75.8
HPLM + 10% dialyzed FBS, 1.71 µM	130	113	76.1
HPLM + 10% dialyzed FBS, 5.12 µM	121	118	80.8
HPLM + 10% dialyzed FBS, 15.4 µM	98.3	108	93.5
HPLM + 10% dialyzed FBS, 46.1 µM	105	97.2	68.3
RPMI 5 mM glucose + 10% FBS, 0.000781 µM	101	101	100
RPMI 5 mM glucose + 10% FBS, 0.00234 µM	108	97.6	94.4
RPMI 5 mM glucose + 10% FBS, 0.00702 µM	107	104	101
RPMI 5 mM glucose + 10% FBS, 0.0211 µM	110	106	93
RPMI 5 mM glucose + 10% FBS, 0.0632 µM	121	116	99
RPMI 5 mM glucose + 10% FBS, 0.19 µM	113	111	88
RPMI 5 mM glucose + 10% FBS, 0.569 µM	122	103	98.5
RPMI 5 mM glucose + 10% FBS, 1.71 µM	104	109	95.1
RPMI 5 mM glucose + 10% FBS, 5.12 µM	117	112	110
RPMI 5 mM glucose + 10% FBS, 15.4 µM	122	106	106
RPMI 5 mM glucose + 10% FBS, 46.1 µM	121	90.7	89.9
RPMI 5 mM glucose + 10% dialyzed FBS, 0.000781 µM	73	98.1	91.7
RPMI 5 mM glucose + 10% dialyzed FBS, 0.00234 µM	102	107	96.1
RPMI 5 mM glucose + 10% dialyzed FBS, 0.00702 µM	99.9	111	101
RPMI 5 mM glucose + 10% dialyzed FBS, 0.0211 µM	106	112	105
RPMI 5 mM glucose + 10% dialyzed FBS, 0.0632 µM	108	110	100
RPMI 5 mM glucose + 10% dialyzed FBS, 0.19 µM	111	119	104
RPMI 5 mM glucose + 10% dialyzed FBS, 0.569 µM	110	117	117
RPMI 5 mM glucose + 10% dialyzed FBS, 1.71 µM	106	113	92
RPMI 5 mM glucose + 10% dialyzed FBS, 5.12 µM	115	120	111
RPMI 5 mM glucose + 10% dialyzed FBS, 15.4 µM	95.7	110	90.8
RPMI 5 mM glucose + 10% dialyzed FBS, 46.1 µM	111	91.1	115

AUC of viability dose-response curve
Conditions	HPLM + 10% dialyzed FBS	RPMI 5 mM glucose + 10% FBS	RPMI 5 mM glucose + 10% dialyzed FBS
[4]	449	458	465
[5]	471	473	476

NCCS(=O)(=O)O
AUC of viability dose-response curve
Conditions	[4]	[5]	[6]
HPLM + 10% dialyzed FBS	441	469	463
RPMI 5 mM glucose + 10% FBS	455	458	471
RPMI 5 mM glucose + 10% dialyzed FBS	449	463	468

CCOC(=O)C(C)(C)Oc1ccc(Cl)cc1
AUC of viability dose-response curve
Conditions	[4]	[5]	[6]
HPLM + 10% dialyzed FBS	464	459	465
RPMI 5 mM glucose + 10% FBS	453	464	471
RPMI 5 mM glucose + 10% dialyzed FBS	453	461	476

O=C1c2c(O)cc(O)cc2O[C@H](c2cc(O)c(O)c(O)c2)[C@H]1O
AUC of viability dose-response curve
Conditions	[4]	[5]	[6]
HPLM + 10% dialyzed FBS	430	456	426
RPMI 5 mM glucose + 10% FBS	461	452	410
RPMI 5 mM glucose + 10% dialyzed FBS	453	455	420

Nc1nc(N)nc(-c2cc(Cl)ccc2Cl)n1.O=C(O)/C=C\C(=O)O
AUC of viability dose-response curve
Conditions	[4]	[5]	[6]
HPLM + 10% dialyzed FBS	472	447	447
RPMI 5 mM glucose + 10% FBS	453	460	432
RPMI 5 mM glucose + 10% dialyzed FBS	461	457	459
